The source of these data is paper PMC9543091, “A bacterial chemoreceptor that mediates chemotaxis to two different plant hormones” (Environmental Microbiology, 2022).

In assay [1] the target is T1, PcpI (Pseudomonas putida, UniProt A0A4D6XHR0).
T1 construct: gene E6B08_28110; LBD (amino acids 38–174)
T1 sequence (A0A4D6XHR0 38-174): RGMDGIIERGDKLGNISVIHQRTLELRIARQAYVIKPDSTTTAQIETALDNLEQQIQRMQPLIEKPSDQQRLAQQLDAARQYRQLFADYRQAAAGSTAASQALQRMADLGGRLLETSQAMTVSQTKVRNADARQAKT
Put plainly: isothermal titration calorimetry. Format: binding.

The target in assay [2] is T2, E6B08_RS28125 (solute binding protein).
T2 construct: recombinant from pET28b(+), without the predicted signal peptide
Put plainly: isothermal titration calorimetry (and DSF). On the set-up: species or system Pseudomonas putida. (Isothermal titration calorimetry measures the heat released or taken up as one component is titrated into another.)

Assay [3] has as its target T1, PcpI. The assay is described as follows: isothermal titration calorimetry; DSF Tm shift […]°C. The format is binding. The text has this: Exothermic heats were observed that decreased as protein saturation progressed

`Cc1cccc(C(=O)O)c1` [3-methylbenzoate]: the Kd at PcpI [1] (read-out: Kd) was 91 ± 8 µM.

Regarding `N=C(N)NCCC[C@H](N)C(=O)O` [L-Arg], in assay [2], the Kd was 29.5 ± 3 µM. As to `N[C@@H](Cc1c[nH]cn1)C(=O)O` [L-His], the affinity in assay [2], expressed as Kd, was 3.3 ± 0.3 µM.

Turning to `NCCC[C@H](N)C(=O)O` [L-ornithine], the Kd in assay [2] stood at 0.9 ± 0.1 µM.

For the molecule `O=C(O)c1ccccc1` [benzoate], the dissociation constant Kd at PcpI [1] was 171 ± 14 µM.

Take `O=C(O)c1ccccc1O` [salicylate]: at PcpI [3], the Kd was found to be 826 ± 34 µM.

For orientation: Kd means the free concentration of one partner at which half of the binding sites on the other are occupied at equilibrium, for simple one-to-one binding.
